One may read the IC50 as the concentration that inhibits the measured activity by half.

The test system of one data set is A431 s.c. tumor. The data set can be described thus: Therapeutic evaluation in A431 s.c. human tumor xenograft model. The data set is classed as in vivo, nude mice. For orientation: In xenograft studies the graft and the host belong to different species.
Another data set relates to A431 tumor bearing mice. The data set can be described thus: Pilot toxicity study in A431 tumor bearing mice. Format: in vivo, nude mice.
For the next data set, the target named is T1, HER3 (Homo sapiens, UniProt P21860).
T1 construct: endogenous in cells
The data set can be described thus: ELISA-based HER receptor phosphorylation assay, HER3. The data set is classed as cell-based. To be noted: HRG; for maximal inhibition of HER3 phosphorylation: 600 nM protein; for IC50: read-out: IC50, inhibition of HER3 phosphorylation. (An ELISA detects its analyte on a solid surface through an enzyme-linked reagent.)

The target in the next data set is T2, HER2 (Homo sapiens, UniProt P04626).
T2 construct: endogenous in cells
The data set can be described thus: ELISA-based HER receptor phosphorylation assay, HER2. The data set is classed as cell-based. To be noted: MCF7/HER2 cells, HRG, 600 nM protein.

Another data set deals with heregulin (HRG). In words: 125I-HRG binding with BS3 cross-linking and SDS-PAGE. As to conditions: for binding of 125I-HRG: 5 nM 125I-HRG, BS3 cross-linking, SDS-PAGE.
A further data set has as its system MCF7 cells. In words: Ligand-stimulated cell proliferation, Alamar Blue. Format: cell-based. To be noted: MCF7 stimulated by HRGβ, at 1 μm. The procedure: Cell lines MCF7, ZR75-1, ME180 were purchased from ATCC and kept in 10% of FBS DMEM. Cells were seeded at 2000 per well in 96-well plate in 1% FBS supplemented DMEM. After 2-3 hr of seeding, increasing concentrations of candidate HER ECD derivatives were added to the culture in the present of ligands (EGF or HRGβ). Cells were incubated at 37° C. for about 72 hr. Cells relative density were measured by Alamar Blue method. Alamar Blue (Sigma) was prepared in PBS at concentration of 4 uM, added to the microplate at 1/10 volume of culture medium (final concentration 0.4 uM) and plates returned to the incubator. Fluorescence was read at Ex.=530 nm/Em.=590 nm after 2-4 hours at 37° C.
(Alamar Blue is a resazurin reagent that responds to reducing activity.)

Another data set deals with EGF (Homo sapiens, UniProt P01133). The data set can be described thus: 125I-EGF binding with BS3 cross-linking and SDS-PAGE. As to conditions: supernatant of transfected 293T cells, 5 nM 125I-EGF, BS3 cross-linking, SDS-PAGE.
EGF, sequence (P01133 971-1023 limits assumed): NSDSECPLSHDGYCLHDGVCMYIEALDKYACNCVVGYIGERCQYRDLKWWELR
Data set [1] deals with the molecule itself. The data set can be described thus: self-association by size exclusion chromatography (apparent over calculated molecular weight).
Method: This methodology permits simplified analysis of the ability of receptor ectodomains to associate as either homodimers or heterodimers. To perform molecular size exlusion analysis, eluted molecules were compared to reference standards. […] Smaller volumes elute in the retained volume of the column, while larger molecules elute in smaller volumes according to their increasing molecular mass.
Molecular size exclusion analysis was performed using a A TSK3000 size exclusion column (Tosoh Bioscience, Montgomeryville, Pa.) equilibrated with PBS at a flow rate of 0.7 ml/min. Gel filtration standards (BioRad, Hercules, Calif.) were used to calibrate the column. Their elution volumes and molecular weights were plotted. Elution volumes were determined for each unknown by injection of 30 μg of each molecule in PBS and their apparent molecular weights calculated. Flow was maintained over the column between injections. Molecular weights were determined using a Standard curve for molecular weight standards.
In data set [2] the target is T3, neuregulin-1 beta 1 (NRG1β1) (human, UniProt Q02297-6 177-241, limits assumed).
T3 construct: also called HRG; heregulin
T3 sequence (looked up): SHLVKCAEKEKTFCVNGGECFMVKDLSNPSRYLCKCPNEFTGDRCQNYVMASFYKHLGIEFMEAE
In words: 125I-HRG (5 nM) cross-linking (BS3), normalised by anti-HER3 Western blot densitometry.
Method: 1 mM of the BS₃ crosslinker was added at the end of the binding assay to cross-link the bound molecules. Binding reactions were separated on an SDS-PAGE gel. The protein gel was dried and exposed to a film for 2 and 6 hours.

Setting [3] is: Group 5, 38 mg/kg Iressa, group mean.
Setting [4] is: Group 6, 75 mg/kg Iressa, group mean.

Entries after “also recorded” stand apart in the source; their conditions may differ. Marks after values point to notes of the source that are not given here.

Method for A431 s.c. tumor: Mice were obtained from the commercial suppliers (Harlan, UK). The mice were 4-6 weeks old at the start of the study. […] The room was air-conditioned by a system designed to maintain an air temperature range of 23±2° C. Mice were housed in groups of 2 or 5 during the procedure in plastic cages (Techniplast UK) with irradiated bedding and provided with both nesting materials and environmental enrichment. […] Tumor dimensions were recorded (calliper measurement of length and width and tumor cross-sectional area and volume calculated) three times weekly and body weight measured weekly. Each mouse remained in the study until terminated, or until necessitate removal of that mouse from the study. Animals were terminated if the tumor size becomes excessive or any adverse effects are noted. At termination the mice were anaesthetized (Hypnorm/Hynovel) and 1 ml blood removed by cardiac puncture, processed for plasma, frozen for both the pilot and therapeutic study. The mice were then terminated by an approved S1 method. For the therapeutic study, the tumors were excised, weighed, measured and fixed in formalin. Body weight data, tumor growth and final tumor weight were recorded and reported in spreadsheet and graphical format. Statistical analysis was performed if appropriate using Minitab. […] An extra group for the therapeutic study was added by PRECOS as below. Group 9: 30 mg/kg human IgG i.p. 3 times weekly. Iressa was prepared by PRECOS in 10% DMSO & 5% Cremaphor in PBS. Tumors were initiated with 2×10^6 cells per mouse for the therapeutic study.
Method for A431 tumor bearing mice: Mice were obtained from the commercial suppliers (Harlan, UK). The mice were 4-6 weeks old at the start of the study. […] The room was air-conditioned by a system designed to maintain an air temperature range of 23±2° C. Mice were housed in groups of 2 or 5 during the procedure in plastic cages (Techniplast UK) with irradiated bedding and provided with both nesting materials and environmental enrichment.
Cells were injected subcutaneously into mice at 1×10^7 cells in a volume of 100 μl.
For the pilot toxicity study, mice were allocated to their treatment groups and treatment began on day 5 for 2 weeks in a dosing volume of 150 μl per injection. […] Tumor dimensions were recorded (calliper measurement of length and width and tumor cross-sectional area and volume calculated) three times weekly and body weight measured weekly.
Each mouse remained in the study until terminated, or until necessitate removal of that mouse from the study. Animals were terminated if the tumor size becomes excessive or any adverse effects are noted. At termination the mice were anaesthetized (Hypnorm/Hynovel) and ˜1 ml blood removed by cardiac puncture, processed for plasma, frozen for both the pilot and therapeutic study. The mice were then terminated by an approved S1 method.
Pilot toxicity study was terminated after 12 days of dosing in order to collect plasma samples 3 hours after dosing. […]
Method for EGF: BS^3, a chemical crosslinker (Pierce) was added at the end of the binding assay to cross-link the bound molecules. Samples were separated on an SDS-PAGE gel and exposed to a film for detection.
(§1) Western blots were probed with anti-His antibody to compare protein levels.
Method for HER2: Phosphorylation of HER receptors was assessed in an ELISA-based HER Receptor phosphorylation assay. Various cells (A431, MCF7, SK-BR3, SK-OV3, MCF7/HER2) were serum-starved in serum free medium for about 24 hr.
Cells were lysed on ice for 15 min and cell lysate were applied to a 96-well plate pre-coated with the respective receptor-specific capture antibodies (antibodies were purchased from R & D System) by manufacture recommended concentrations (0.4 to 4 ug/ml) and condition (in PBS, room temperature, overnight). Cell lysates were incubated with the capture Ab plate for 3 hrs at room temperature. Plates were washed 3× with PBST buffer. Anti-phosphotyrosine antibody clone 4G10 HRP-conjugated (Upstate) were diluted at 1:1000 in 1% of BSA.PBS and added to the plates, 100 μl/well for 1 hr to detect specifically HER receptors phosphorylated on tyrosine. After 3× PBST wash, the plates were developed by adding 100 μl of substrate solution (TMB, Sigma) and stopped by 50 μl of SDS stop solution. The optical density was determined by microplate reader at 650 nm (Molecular Devices, VERSAmax).
Method for heregulin (HRG): 1 mM of the BS3 crosslinker was added at the end of the binding assay to cross-link the bound molecules. Binding reactions were separated on an SDS-PAGE gel.
as §1

On to `COc1cc2ncnc(Nc3ccc(F)c(Cl)c3)c2cc1OCCCN1CCOCC1` [Iressa, Gefitinib], for which the “tumor growth rate in comparison to the vehicle group” value in the data set on A431 s.c. tumor (38 mg/kg Iressa (Group 5)) is “did not”. The “reduction of final tumor weight” value in the data set with A431 s.c. tumor (75 mg/kg Iressa (Group 6)) stood at 69%. Further, the “tumor growth rate in comparison to the vehicle group” value with A431 s.c. tumor (75 mg/kg Iressa i.p. days 1-5 cycled weekly (Group 6)) is reported as “significantly decreased”. Besides, in the data set on A431 s.c. tumor (setting [3]), the “Tumor volume (mm^3) Day 7” value came out at 51.2 mm^3, the “Tumor volume (mm^3) Day 10” value was determined as 79.4 mm^3, the “Tumor volume (mm^3) Day 12” value turned out to be 108.8 mm^3 and the “Tumor volume (mm^3) Day 14” value is listed as 152.6 mm^3. In the data set with A431 s.c. tumor (setting [3]), the “Tumor volume (mm^3) Day 17” value turned out to be 220.6 mm^3, the “Tumor volume (mm^3) Day 19” value is reported as 259.6 mm^3, the “Tumor volume (mm^3) Day 21” value is 396.9 mm^3 and the “Tumor volume (mm^3) Day 24” value came to 477.0 mm^3. Moreover, in the data set on A431 s.c. tumor (setting [3]), the “Tumor volume (mm^3) Day 25” value came to 491.1 mm^3 and the “Tumor volume (mm^3) Day 26” value was 510.1 mm^3. In addition, in the data set with A431 s.c. tumor (Group 5, 38 mg/kg Iressa, final tumor weight, group mean), the “Tumor weight” value was found to be 0.267 g. Further, in the data set with A431 s.c. tumor (setting [4]), the “Tumor volume (mm^3) Day 7” value was 48.6 mm^3, the “Tumor volume (mm^3) Day 10” value was 72.5 mm^3, the “Tumor volume (mm^3) Day 12” value is listed as 87.1 mm^3 and the “Tumor volume (mm^3) Day 14” value worked out at 104.3 mm^3. For the same molecule, in the data set with A431 s.c. tumor (setting [4]), the “Tumor volume (mm^3) Day 17” value amounted to 123.1 mm^3, the “Tumor volume (mm^3) Day 19” value is 112.1# mm^3, the “Tumor volume (mm^3) Day 21” value is 150.1# mm^3 and the “Tumor volume (mm^3) Day 24” value was 180.5# mm^3. Further, in the data set with A431 s.c. tumor (setting [4]), the “Tumor volume (mm^3) Day 25” value was 178.6# mm^3 and the “Tumor volume (mm^3) Day 26” value is 181.9# mm^3. Besides, the “Tumor weight (g)” value in the data set on A431 s.c. tumor (Group 6, 75 mg/kg Iressa, final tumor weight, group mean) was 0.095# g. Also, the “tumor size prior to termination” value in the data set with A431 tumor bearing mice (Iressa treatment groups (groups 2 and 3)) is listed as “inhibition of tumor size”. The adverse effects result in the data set on A431 tumor bearing mice (i.p., 30 mg/kg RB200h, 75 mg/kg IRESSA, or 10 mg/kg RB200h with 38 mg/kg IRESSA, 12 days of dosing) is recorded as “No adverse effects”.
As for “HF210T: truncated HER2 ECD, residues 1-573, SEQ ID NO:16”, the “maximal inhibition of HER3 phosphorylation” value in the data set with HER3 (MCF7/HER2 cells) is reported as “about 55%”. In addition, in the data set with HER2, the “maximal inhibition of HER2 phosphorylation” value is given as “about 55%”.
As to “HF220T: truncated HER2 ECD, residues 1-508, SEQ ID NO:14”, the “maximal inhibition of HER3 phosphorylation” value in the data set with HER3 (MCF7/HER2 cells) is “about 35%”. In addition, the “maximal inhibition of HER2 phosphorylation” value with HER2 is listed as “about 35%”.
Take “HF300T: full-length HER3 ECD, residues 1-621, SEQ ID NO:26”: in the data set with HER3 (MCF7 cells), the “maximal inhibition of HER3 phosphorylation” value is “about 38%” and the IC50 turned out to be 48 nM. Moreover, in the data set with HER3 (SK-BR3 cells), the “maximal inhibition of HER3 phosphorylation” value is on record as “about 55%”. Further, in the data set on heregulin (HRG) (normalized by anti-HER3 Western blot densitometry), the “binding of HRG as compared to the other derivatives tested” value is reported as “about 10%”.
Regarding “HF310T: truncated HER3 ECD, residues 1-500, SEQ ID NO:20”, the “maximal inhibition of HER3 phosphorylation” value in the data set with HER3 (MCF7 cells) is recorded as “about 78%”; with HER3 (SK-BR3 cells) it was “about 75%”. Moreover, in the data set with HER3 (MCF7 cells), the IC50 stood at 39 nM. For the same molecule, in the data set with MCF7 cells, the inhibition of proliferation result is “about 95%”. Besides, the “binding of 125I-HRG” value with heregulin (HRG) was “equivalent binding”.
For “HFD200: full-length HER2 ECD fused to Fc, SEQ ID NO:42”, in the data set with heregulin (HRG), the “binding of 125I-HRG” value is “did not show any detectable”. In addition, the “binding of 125I-EGF” value is on record as “did not show any detectable” with EGF and “no binding” with EGF (listed as HER2-650/Fc).
As to “HFD300: full-length HER3 ECD (1-621) fused to Fc, SEQ ID NO:46; homodimer”, the “binding of 125I-HRG” value with heregulin (HRG) was “equivalent binding; also recorded: bound”; with heregulin (HRG) (listed as HER3-621/Fc), “binds”.
As for “HFD310: truncated HER3 ECD (1-500) fused to Fc, SEQ ID NO:44”, in the data set on heregulin (HRG), the “binding of 125I-HRG” value was “equivalent binding”.
With “HFD400: full-length HER4 ECD fused to Fc, SEQ ID NO:48”, the results for the “binding of 125I-HRG” value with heregulin (HRG) and with heregulin (HRG) (listed as HER4-650/Fc) were “bound” and “binds”, respectively. In addition, in the data set with EGF, the “binding of 125I-EGF” value is reported as “no binding”.

B1: HER3-621, full-length HER3 ECD (receptor)
chain: SEVGNSQAVCPGTLNGLSVTGDAENQYQTLYKLYERCEVVMGNLEIVLTGHNADLSFLQWIREVTGYVLVAMNEFSTLPLPNLRVVRGTQVYDGKFAIFVMLNYNTNSSHALRQLRLTQLTEILSGGVYIEKNDKLCHMDTIDWRDIVRDRDAEIVVKDNGRSCPPCHEVCKGRCWGPGSEDCQTLTKTICAPQCNGHCFGPNPNQCCHDECAGGCSGPQDTDCFACRHFNDSGACVPRCPQPLVYNKLTFQLEPNPHTKYQYGGVCVASCPHNFVVDQTSCVRACPPDKMEVDKNGLKMCEPCGGLCPKACEGTGSGSRFQTVDSSNIDGFVNCTKILGNLDFLITGLNGDPWHKIPALDPEKLNVFRTVREITGYLNIQSWPPHMHNFSVFSNLTTIGGRSLYNRGFSLLIMKNLNVTSLGFRSLKEISAGRIYISANRQLCYHHSLNWTKVLRGPTEERLDIKHNRPRRDCVAEGKVCDPLCSSGGCWGPGPGQCLSCRNYSRGGVCVTHCNFLNGEPREFAHEAECFSCHPECQPMGGTATCNGSGSDTCAQCAHFRDGPHCVSSCPHGVLGAKGPIYKYPDVQNECRPCHENCTQGCKGPELQDCLGQTLVLIGKTLESRGPFEQKLISEEDLNMHTGHHHHHH
notes: also called HF300; HF300T
As for B1, in [1], the “M. Wt. (ap):M. Wt.” value was 2.66. In data set [2], the “binding relative to the other derivatives tested” value was around 10%.

B2: HF410T (HER4-485) (receptor)
chain: QSVCAGTENKLSSLSDLEQQYRALRKYYENCEVVMGNLEITSIEHNRDLSFLRSVREVTGYVLVALNQFRYLPLENLRIIRGTKLYEDRYALAIFLNYRKDGNFGLQELGLKNLTEILNGGVYVDQNKFLCYADTIHWQDIVRNPWPSNLTLVSTNGSSGCGRCHKSCTGRCWGPTENHCQTLTRTVCAEQCDGRCYGPYVSDCCHRECAGGCSGPKDTDCFACMNFNDSGACVTQCPQTFVYNPTTFQLEHNFNAKYTYGAFCVKKCPHNFVVDSSSCVRACPSSKMEVEENGIKMCKPCTDICPKACDGIGTGSLMSAQTVDSSNIDKFINCTKINGNLIFLVTGIHGDPYNAIEAIDPEKLNVFRTVREITGFLNIQSWPPNMTDFSVFSNLVTIGGRVLYSGLSLLILKQQGITSLQFQSLKEISAGNIYITDNSNLCYYHTINWTTLFSTINQRILESRGPFEQKLISEEDLNMHTGHHHHHH
In the case of B2, in [1], the “M. Wt. (ap):M. Wt.” value was 1.98.

The values are drawn from patent US20100055093A1, “PAN-CELL SURFACE RECEPTOR-SPECIFIC THERAPEUTICS” (RECEPTOR BIOLOGIX INC., priority 2006, published 2010).
